From US20070128217A1 (priority 2003, published 2007)

Tests used:
[1] = system: antibodies in sera from SARS patients (sera 1a, 1b, 2, 6, 37, 62, London, SARS-yellow, SARS-green); assay type: binding, human; design: Binding of serum 6 to linear peptides of protein X1 of SARS-CoV Urbani / Binding of serum 37 to linear peptides of protein X1 of SARS-CoV Urbani / Binding of serum 6 to looped/cyclic peptide (PEPSCAN-ELISA) / Binding of serum 37 to looped/cyclic peptide (PEPSCAN-ELISA) / Binding of serum 37 to looped/cyclic peptides of protein X1 of SARS-CoV Urbani / Binding of serum 6 to linear peptides of protein X2 / Binding of serum 37 to linear peptides of protein X2 / Binding of serum 37 to looped/cyclic peptides of protein X2 of SARS-CoV Urbani / Binding of serum 6 to linear peptides of protein M of SARS-CoV Urbani / Binding of serum 37 to linear peptides of protein M of SARS-CoV Urbani / Binding of serum 6 to looped/cyclic peptides of protein M of SARS-CoV Urbani / Binding of serum 37 to looped/cyclic peptides of protein M of SARS-CoV Urbani / Binding of serum 6 to linear peptides of protein X3 of SARS-CoV Urbani / Binding of serum 37 to linear peptides of protein X3 of SARS-CoV Urbani / Binding of serum 37 to looped/cyclic peptides of protein X3 of SARS-CoV Urbani / Binding of serum 6 to linear peptides of protein X4 of SARS-CoV Urbani / Binding of serum 37 to linear peptides of protein X4 of SARS-CoV Urbani / Binding of serum 37 to looped/cyclic peptides of protein X4 of SARS-CoV Urbani / Binding of serum 6 to linear peptides of protein X5 of SARS-CoV Urbani / Binding of serum 37 to linear peptides of protein X5 of SARS-CoV Urbani / Binding of serum 37 to looped/cyclic peptides of protein X5 of SARS-CoV Urbani / Binding of serum 6 to linear peptides of protein N of SARS-CoV Urbani / Binding of serum 37 to linear peptides of protein N of SARS-CoV Urbani / Binding of serum 6 to linear peptide (PEPSCAN-ELISA) / Binding of serum 1a to looped/cyclic peptides of protein N of SARS-CoV Urbani / Binding of serum 1b to looped/cyclic peptides of protein N of SARS-CoV Urbani / Binding of serum 2 to looped/cyclic peptides of protein N of SARS-CoV Urbani / Binding of serum 6 to looped/cyclic peptides of protein N of SARS-CoV Urbani / Binding of serum 37 to looped/cyclic peptides of protein N of SARS-CoV Urbani / Binding of serum 62 to looped/cyclic peptides of protein N of SARS-CoV Urbani / Binding of serum London to looped/cyclic peptides of protein N of SARS-CoV Urbani / Binding of serum SARS-green to looped/cyclic peptides of protein N of SARS-CoV Urbani: unit not given here
[2] = system: control sera (pooled serum of ten healthy LUMC hospital workers; commercial negative donor pooled serum from the Dutch bloodbank); assay type: binding, human; design: Binding of Control serum LUMC to linear peptides / Binding of Control serum Blood-bank to linear peptides / Binding of Control serum LUMC to looped peptides / Binding of Control Serum Blood-Bank to Looped peptides / Binding of Control serum LUMC to linear peptides of the protein M of SARS-CoV Urbani / Binding of Control serum Blood-bank to linear peptides of the protein M of SARS-CoV Urbani / Binding of Control serum LUMC to looped peptides of the protein M of SARS-CoV Urbani / Binding of Control Serum Blood-Bank to Looped peptides of the protein M of SARS-CoV Urbani: unit not given here
[3] = system: rabbit serum obtained by immunizing a rabbit with the SARS-CoV strain Frankfurt 1; assay type: binding; design: Binding of a rabbit serum to linear peptides / Binding of a rabbit serum to looped peptides / Rabbit serum linear peptides / Rabbit serum looped peptides / Binding of a rabbit serum to linear peptides of protein N of SARS-CoV Urbani (Rabbit serum linear peptides) / Binding of a rabbit serum to looped/cyclic peptides of protein N of SARS-CoV Urbani (Rabbit serum looped peptides): unit not given here
[4] = system: recombinant human anti-SARS-CoV antibody 03-018; assay type: binding; design: Binding of antibody 03-018 to linear peptides of the N protein of SARS-CoV Urbani / Binding of antibody 03-018 to looped/cyclic peptides of the N protein of SARS-CoV Urbani: unit not given here

SQASSRSSSRSRGNS
Binding of serum 1a to linear peptide (PEPSCAN-ELISA) [1]: 0.2 | Binding of serum 1a to looped/cyclic peptides of protein N of SARS-CoV Urbani [1]: 0.3 | Binding of serum 1b to linear peptide (PEPSCAN-ELISA) [1]: 0.1 | Binding of serum 1b to looped/cyclic peptides of protein N of SARS-CoV Urbani [1]: 0.2 | Binding of serum 2 to linear peptide (PEPSCAN-ELISA) [1]: 0.2 | Binding of serum 2 to looped/cyclic peptides of protein N of SARS-CoV Urbani [1]: 0.3 | Binding of serum 6 to linear peptide (PEPSCAN-ELISA) [1]: 0.4 | Binding of serum 6 to looped/cyclic peptides of protein N of SARS-CoV Urbani [1]: 0.2 | Binding of serum 37 to linear peptide (PEPSCAN-ELISA) [1]: 0.6 | Binding of serum 37 to looped/cyclic peptides of protein N of SARS-CoV Urbani [1]: 0.5 | Binding of serum 62 to linear peptide (PEPSCAN-ELISA) [1]: 0.6 | Binding of serum 62 to looped/cyclic peptides of protein N of SARS-CoV Urbani [1]: 0.4 | Binding of serum London to linear peptide (PEPSCAN-ELISA) [1]: 0.4 | Binding of serum London to looped/cyclic peptides of protein N of SARS-CoV Urbani [1]: 0.4 | Binding of serum SARS-green to linear peptide (PEPSCAN-ELISA) [1]: 0.2 | Binding of serum SARS-green to looped/cyclic peptides of protein N of SARS-CoV Urbani [1]: 0.0 | Binding of serum SARS-yellow to linear peptide (PEPSCAN-ELISA) [1]: 0.6 | Binding of serum SARS-yellow to looped/cyclic peptides of protein N of SARS-CoV Urbani [1]: 0.3 | Binding of Control Serum Blood-Bank to Looped peptides [2]: 0.6 | Binding of Control serum Blood-bank to linear peptides [2]: 0.7 | Binding of Control serum LUMC to linear peptides [2]: 0.7 | Binding of Control serum LUMC to looped peptides [2]: 0.6 | Binding of a rabbit serum to linear peptides of protein N of SARS-CoV Urbani (Rabbit serum linear peptides) [3]: 0.1 | Binding of a rabbit serum to looped/cyclic peptides of protein N of SARS-CoV Urbani (Rabbit serum looped peptides) [3]: 0.6 | Binding of antibody 03-018 to linear peptides of the N protein of SARS-CoV Urbani [4]: 0.1 | Binding of antibody 03-018 to looped/cyclic peptides of the N protein of SARS-CoV Urbani [4]: 0.2

SRGNSPARMASGGGE
Binding of serum 1a to linear peptide (PEPSCAN-ELISA) [1]: 0.3 | Binding of serum 1a to looped/cyclic peptides of protein N of SARS-CoV Urbani [1]: 0.2 | Binding of serum 1b to linear peptide (PEPSCAN-ELISA) [1]: 0.2 | Binding of serum 1b to looped/cyclic peptides of protein N of SARS-CoV Urbani [1]: 0.1 | Binding of serum 2 to linear peptide (PEPSCAN-ELISA) [1]: 0.1 | Binding of serum 2 to looped/cyclic peptides of protein N of SARS-CoV Urbani [1]: 0.2 | Binding of serum 6 to linear peptide (PEPSCAN-ELISA) [1]: 0.2 | Binding of serum 6 to looped/cyclic peptides of protein N of SARS-CoV Urbani [1]: 0.1 | Binding of serum 37 to linear peptide (PEPSCAN-ELISA) [1]: 0.6 | Binding of serum 37 to looped/cyclic peptides of protein N of SARS-CoV Urbani [1]: 0.4 | Binding of serum 62 to linear peptide (PEPSCAN-ELISA) [1]: 0.6 | Binding of serum 62 to looped/cyclic peptides of protein N of SARS-CoV Urbani [1]: 0.3 | Binding of serum London to linear peptide (PEPSCAN-ELISA) [1]: 0.6 | Binding of serum London to looped/cyclic peptides of protein N of SARS-CoV Urbani [1]: 0.3 | Binding of serum SARS-green to linear peptide (PEPSCAN-ELISA) [1]: 0.2 | Binding of serum SARS-green to looped/cyclic peptides of protein N of SARS-CoV Urbani [1]: 0.2 | Binding of serum SARS-yellow to linear peptide (PEPSCAN-ELISA) [1]: 0.6 | Binding of serum SARS-yellow to looped/cyclic peptides of protein N of SARS-CoV Urbani [1]: 0.1 | Binding of Control Serum Blood-Bank to Looped peptides [2]: 0.5 | Binding of Control serum Blood-bank to linear peptides [2]: 0.8 | Binding of Control serum LUMC to linear peptides [2]: 0.8 | Binding of Control serum LUMC to looped peptides [2]: 0.4 | Binding of a rabbit serum to linear peptides of protein N of SARS-CoV Urbani (Rabbit serum linear peptides) [3]: 0.1 | Binding of a rabbit serum to looped/cyclic peptides of protein N of SARS-CoV Urbani (Rabbit serum looped peptides) [3]: 0.2 | Binding of antibody 03-018 to linear peptides of the N protein of SARS-CoV Urbani [4]: 0.1 | Binding of antibody 03-018 to looped/cyclic peptides of the N protein of SARS-CoV Urbani [4]: 0.2
